Legend:
[1] = tested on: NCI-H929 Multiple Myeloma xenograft; assay: NCI-H929 Multiple Myeloma xenograft model; type: in vivo, mouse; details: for tumor growth inhibition: day 19; for H929 tumor growth: mouse, in vivo
Protocol: Compounds I, I-R, and I-S were tested in NCI-H929 Multiple Myeloma xenograft model, and the results are depicted in FIG. 24.

[2] = tested on: DoHH2 Follicular Lymphoma xenograft; assay: DoHH2 Follicular Lymphoma xenograft model; type: in vivo, mouse
[3] = tested on: Human umbilical vascular endothelial cells; assay: Growth factor-induced HUVEC proliferation assay; type: cell-based; details: for IC50: Homo sapiens, Endothelial cell
Protocol: Human Umbilical Vascular Endothelial Cells Proliferation Assay: Human umbilical vascular endothelial cells were thawed and grown in EGM2 medium until passage 3 to 6 for all proliferation assays. Human umbilical vascular endothelial cells were trypsinized, washed with 20% FBS/M199 medium and plated with the same medium at 10^4 cells/100 μL per well to 96-well cell culture plates. The plates were incubated overnight at 37° C. to allow cells to adhere. The cells were then starved in 1% FBS/M199 medium for 18 hours after washing with the same medium 3 times. For optimization of the concentration of the growth factors in the HUVEC proliferation assay, 100 µL/well of the 2× serial diluted growth factors, starting at 100 ng/mL, were added to HUVECs in duplicate for 72 hours at 37° C. in a humidified cell culture incubator with 5% CO2. For analysis of test compounds, a serial dilution of the test compounds in 0.4% DMSO/1% FBS/M199 medium in duplicate was made from the 10 mM stock. Fifty microliters per well of the serially diluted test compounds (10, 1.0, 0.1, 0.01, 0.001, 0.0001, 0.00001 μM) were added to the cells for 1 to 2 hours at 37° C. The final DMSO concentration in the cells is 0.1%. Then 50 μL of 4× final concentration of relative growth factors was added to each well in duplicate for 72 hours at 37° C. in a humidified cell culture incubator with 5% CO2. Thymidine incorporation was measured by adding one microcurie of 3H-thymidine (Amersham) in 20 μL medium to each well and incubated at 37° C. in a humidified cell culture incubator with 5% CO2 for 5 to 6 hours. The cells were then trypsinized and harvested onto UniFilter GF/C filter plates (Perkin Elmer) by using the cell harvester (Tomtec). After the plates were air dried, 20 μL/well of Microscint 20 (Packard) was added then the plates were analyzed in TopCount NXT (Packard). Each well was counted for one minute. The experiments were performed in duplicate in each of 3 donors.
(§1) The percentage inhibition of cell proliferation, tube formation, migration, and invasion was calculated by subtracting the result for unstimulated DMSO control from test sample results, averaging all replicates, and normalizing to the growth factor-stimulated DMSO control (0% inhibition). The IC50 values were calculated by using GraphPad Prism 5.0.

[4] = tested on: Human umbilical vascular endothelial cells; assay: Growth factor-induced HUVEC invasion assay; type: cell-based; details: for IC50: Homo sapiens; for VEGF-, bFGF-, and HGF-induced HUVEC invasion: dose-dependent
Protocol: Human Umbilical Vascular Endothelial Cell Invasion Assay: In the HUVEC invasion assay, the concentration of human fibronectin is optimized to provide a suitable protein structure for adherent cells to attach to the membrane and allow free migration in response to an angiogenic stimulus (e.g. VEGF, bFGF, or HGF) in the lower chamber of the insert plate. HUVECs were starved in 0.1% BSA EBM2 medium for 6 hours after washing with the same medium 3 times. The cells were then trypsinized and centrifuged to remove the remaining trypsin. Then ˜0.5 to 1×10^6 cells in 125 μL/well and 125 μL of 8× serially diluted compounds (10, 1, 0.1, 0.01, 0.001 μM) were added to the upper chamber of the BD Falcon 24-well and 96-well insert plates in duplicate and incubated for ˜1 to 2 hours. (The plates contain a fluorescence blocking, microporous [3.0 μm pore size] PET membrane that has been evenly coated with human fibronectin.) Seven hundred fifty microliters of a 1.33× stock solution of VEGF (final concentration of 25 ng/mL), bFGF (final concentration of 10 ng/mL), or HGF (final concentration of 25 ng/mL) were then added to the lower chamber. The cells were incubated for 22±1 hours at 37° C. The migrated cells were stained with calcein AM at 4 μg/mL in HBSS containing 2% FBS, using 500 µL/well in 24-well plates and 200 µL/well in 96-well plates. The plates were incubated at 37° C. for 90 minutes and read in a fluorescence plate reader.
as §1

[5] = tested on: U87 Glioblastoma xenograft; assay: U87 Glioblastoma xenograft model; type: in vivo, mouse; details: for U87 tumor growth: 30 mg/kg qd
Protocol: Compounds I, I-R, and I-S were tested in U87 Glioblastoma xenograft model, and the results are depicted in FIG. 25.

[6] = tested on: NK cells; assay: NK IgG-induced IFN-γ assay; type: cell-based, human; details: immobilized IgG and IL-2 stimulation; 7 donors
Source text: NK cells from healthy donors were isolated from buffy coat blood by negative selection using the RosetteSep NK cell enrichment cocktail (Stem Cell Technologies, Vancouver, BC) prior to Ficoll-Hypaque (Fisher Scientific Co LLC, PA) density gradient centrifugation following the manufacturers' instructions. CD56+NK cells were isolated to ˜85% purity, as determined by flow cytometry (BD Biosciences, CA).
NK IgG-induced Interferon-Gamma (IFN-γ) Assay: Ninety-six-well flat-bottom plates were coated with 100 µg/mL of human IgG (Sigma) overnight at 4° C. The next day, unbound IgG was washed away with cold 1×PBS. NK cells were then plated in the IgG-coated 96-well plates at 2×10^5 cells per well in 180 μL RPMI-1640 Media and 10 ng/mL of rhIL-2 (R & D Systems, MN) was added. Test compounds were added in a volume of 20 μL DMSO. Final concentrations of test compounds were […]. Final DMSO concentrations were […]. After 48 hours, the supernatants were harvested and analyzed by ELISA for IFN-γ production.
Data used to determine the test compounds to enhance NK cell IFN-γ production in response to immobilized IgG and rhIL-2 stimulation was analyzed for each donor using GraphPad Prism v5.0 software.

[7] = 2 mg/kg monotherapy, 91% S-enantiomer, 9% R-enantiomer
[8] = 3 mg/kg monotherapy, 84% S-enantiomer, 16% R-enantiomer
[9] = 3 mg/kg with Rituxan 1 mg/kg, 84% S-enantiomer, 16% R-enantiomer
[10] = 30 mg/kg monotherapy, Compound I-S: 84% S-enantiomer, 16% R-enantiomer
[11] = 30 mg/kg with Rituxan 1 mg/kg, Compound I-S: 84% S-enantiomer, 16% R-enantiomer
[12] = 40 mg/kg monotherapy, Compound I-S: 91% S-enantiomer, 9% R-enantiomer
[13] = read-out: bFGF (10 ng/mL) IC50 Values, bFGF-induced proliferation
[14] = HGF-induced proliferation, read-out: HGF (25 ng/mL) IC50 Values
[15] = VEGF-induced proliferation, read-out: VEGF (25 ng/mL) IC50 Values
[16] = Endothelial cell, read-out: HGF-induced invasion IC50 Values
[17] = Endothelial cell, read-out: VEGF-induced invasion IC50 Values
[18] = Endothelial cell, read-out: bFGF-induced invasion IC50 Values
[19] = HUVEC, read-out: IC50, HUVEC invasion (growth factor not given)
[20] = HUVEC, read-out: IC50 for inhibition of VEGF induced HUVEC invasion

| Compound | H929 tumor growth [1] | inhibition of VEGF-, bFGF-, or HGF-induced HUVEC proliferation [3] | IC50 [3, 13] | IC50 [3, 14] | IC50 [3, 15] | IC50 [4, 16] | IC50 [4, 17] | IC50 [4, 18] | IC50 [4, 19] | IC50 [4, 20] | VEGF-, bFGF-, and HGF-induced HUVEC invasion [4] | U87 tumor growth [5] | tumor growth inhibition ([5]; 30 mg/kg, day 48) | NK cell IFN-γ production [6] | other results |
| --- | --- | --- | --- | --- | --- | --- | --- | --- | --- | --- | --- | --- | --- | --- | --- |
| O=C1CC[C@H](N2Cc3c(OCc4ccc(CN5CCOCC5)cc4)cccc3C2=O)C(=O)N1 [Compound I-S, (S)-3-(4-((4-(morpholinomethyl)benzyl)oxy)-1-oxoisoindolin-2-yl)piperidine-2,6-dione] | significantly inhibited H929 tumor growth in a dose-dependent manner | did not inhibit | 52000 nM | 51000 nM | > 100000 nM | 19 nM | < 0.1 nM | < 0.1 nM | < 0.1 nM | < 0.3 nM | significantly inhibited | significantly inhibited U87 tumor growth | about 60% | slightly more active than compound I | tumor growth inhibition ([1]; 0.3 mg/kg): 34%; tumor growth inhibition ([1]; 3 mg/kg): 67%; tumor growth inhibition ([1]; 30 mg/kg): 87%; % TGD ((T − C)/C) [2, 7]: 33%; % TGI at D12 (T/C) [2, 7]: 49%; tumor growth, combination study ([2]; 3 mg/kg in combination with Rituxan): more efficacious than Revlimid at 30 mg/kg in combination with Rituxan; % TGD ((T − C)/C) [2, 8]: 13%; % TGI at D12 (T/C) [2, 8]: 27%; % TGD ((T − C)/C) [2, 9]: 57%; % TGI at D12 (T/C) [2, 9]: 71%; % TGD ((T − C)/C) [2, 10]: 21%; % TGI at D12 (T/C) [2, 10]: 35%; % TGD ((T − C)/C) [2, 11]: 56%; % TGI at D12 (T/C) [2, 11]: 50%; % TGD ((T − C)/C) [2, 12]: 52%; % TGI at D12 (T/C) [2, 12]: 67%; tumor growth, monotherapy study ([2]; 2 and 40 mg/kg): significantly inhibits tumor growth; concentrations with significant enhancement of proliferation ([3]; VEGF-treated HUVECs): 1 to 10 µM; tumor growth inhibition ([5]; 15 mg/kg, day 43, another study): about 47% |
| O=C1CC[C@@H](N2Cc3c(OCc4ccc(CN5CCOCC5)cc4)cccc3C2=O)C(=O)N1 [Compound I-R, (R)-3-(4-((4-(morpholinomethyl)benzyl)oxy)-1-oxoisoindolin-2-yl)piperidine-2,6-dione] |  | did not inhibit | 76000 nM | 38000 nM | > 100000 nM | 450 nM | < 0.1 nM | 13 nM | 13 nM | < 0.3 nM | significantly inhibited |  |  | slightly more active than compound I |  |
| O=C1CCC(N2Cc3c(OCc4ccc(CN5CCOCC5)cc4)cccc3C2=O)C(=O)N1 (racemic) [Compound I, 3-(4-((4-(morpholinomethyl)benzyl)oxy)-1-oxoisoindolin-2-yl)piperidine-2,6-dione] | significantly inhibited H929 tumor growth in a dose-dependent manner | did not inhibit | 99000 nM | 24000 nM | > 100000 nM | 590 nM | 0.14 nM | 0.42 nM | 0.4 nM | < 0.3 nM | significantly inhibited | significantly inhibited U87 tumor growth | > 80% |  | concentrations with significant enhancement of proliferation ([3]; bFGF-treated HUVECs): 0.01 to 1 µM |

From patent US20260007679A1, “METHODS OF TREATING CANCER USING 3-(4-((4-(MORPHOLINOMETHYL)BENZYL)OXY)-1-OXOISOINDOLIN-2-YL)PIPERIDINE-2,6-DIONE” (Celgene Corporation, priority 2012, published 2026)
